These are literature values, as cited in US20200230141A1, “BI-LAYER PHARMACEUTICAL TABLET FORMULATION” (ViiV Healthcare Company, priority 2017, published 2020).

Each structure is given as a SMILES string. Where two headings read alike, the source gives them in different places.

The conditions of data set [1]: typical / standard physiologic conditions.
A further data set relates to HIV-1 strains. To be noted: broad range of HIV-1 strains.
For data set [2] the following is noted: steady state, HIV-1-infected adults.
The conditions of data set [3]: not told.

For the molecule `C[C@@H]1CCO[C@H]2Cn3cc(C(=O)NCc4ccc(F)cc4F)c(=O)c(O)c3C(=O)N12` [Dolutegravir, (4R,12aS)—N-[(2,4-difluorophenyl)methyl]-7-hydroxy-4-methyl-6,8-dioxo-3,4,12,12a-tetrahydro-2H-pyrido[5,6]pyrazino[2,6-b][1,3]oxazine-9-carboxamide], the solubility result in data set [1] is “slightly soluble”. In addition, the potency result in the data set on HIV-1 strains is “subnanomolar”. Also, the “Cmax, geometric mean (% CV)” value in data set [2] (50 mg once daily) was 3.67 (20) mcg/mL; in data set [2] (50 mg twice daily), 4.15 (29) mcg/mL. Moreover, the results for the “Cmin, geometric mean (% CV)” value in data set [2] (50 mg once daily) and in data set [2] (50 mg twice daily) were 1.11 (46) mcg/mL and 2.12 (47) mcg/mL, respectively. The “AUC(0-24), geometric mean (% CV)” value is reported as 53.6 (27) mcg · h/mL in data set [2] (50 mg once daily, population PK (SPRING-1, SPRING-2)) and 75.1 (35) mcg · h/mL in data set [2] (50 mg twice daily, population PK (VIKING, VIKING-3)).
With `Nc1ccn([C@@H]2CS[C@H](CO)O2)c(=O)n1` (single isomer, unassigned) [lamivudine], the permeability entry in data set [3] is “highly permeable”.
